Values belong to the compound of their own block, whether it stands above or below them.
Tests used:
[1] = UV/Vis spectral properties (Cary-50 spectrophotometer); assay type: physicochemical; settings: for UVA and UVB absorption properties compared to oxybenzone / absorption spectra, regions encompassed: acetonitrile; for UVA and UVB absorption properties compared to oxybenzone: 5 mM or 0.05 mM, FIG. 1; for absorption spectra, regions encompassed: 5 mM (N-Boc-Imine-6 also 0.05 mM), compared to oxybenzone, FIG. 3
Procedure: Imine-1, Imine-2, and Imine-3 were synthesized, purified, and isolated (see above). All three compounds were separately dissolved in acetonitrile to a final concentration of 5 mM (FIG. 1) or 0.05 mM (FIG. 1, inset) and analyzed by UV/Vis (Cary-50 Spectrophotomer). The spectral properties were compared to oxybenzone in acetonitrile.
Carbamate-1, first described in U.S. Pat. No. 5,490,980A, was synthesized, purified, and isolated (see above). Carbamate-1 was dissolved in acetonitrile to a final concentration of 0.05 mM and analyzed by UV/Vis (Cary-50 Spectrophotomer). The spectral properties were compared to oxybenzone in acetonitrile at a final concentration of 0.05 mM.
Imine-4, Imine-5, and N-Boc-Imine-6 were synthesized, purified, and isolated (see above). All three compounds were separately dissolved in acetonitrile to a final concentration of 5 mM (FIG. 3) and analyzed by UV/Vis (Cary-50 Spectrophotomer). N-Boc-Imine-6 was diluted in acetonitrile to a final concentration of 0.05 mM (FIG. 3, inset) and analyzed by UV/Vis. […] Spectral properties were compared to oxybenzone in acetonitrile at the same concentration.
To understand the solution stability of the Boc-protected imines in protic solvent, N-Boc-Imine-6 was prepared in ethanol in the presence of catalytic glacial acetic acid. Briefly, to a solution of oxybenzone (0.10 g, 0.438 mmol, 1 eq) and N-Boc-1,6-hexanediamine (0.094 g, 0.43 mmol, 1 eq) in ethanol (0.3 mL) was added catalytic glacial acetic acid (1 μL). The reaction mixture was agitated at 900 rpm at 70° C. for 16 hr and monitored by LCMS. […] The reaction was then diluted in ethanol to final concentration of 0.04 mM and analyzed by UV/Vis spectroscopy.
N-Boc-Imine-8 and Imine-8 was synthesized, purified, and isolated (see above). N-Boc-Imine-8 and Imine-8 were dissolved in ethanol to a final concentration of 0.032 mM and 8 mM, respectively (FIG. 6) and analyzed by UV/Vis. (Cary-50 Spectrophotomer). Spectral properties were compared to sulisobenzone in ethanol at similar concentration.
Imine-10 was first dissolved in methyl tert-butyl ether and then diluted in ethanol to a final concentration of 5 mM and 0.04 mM (FIG. 7) and analyzed by UV/Vis. (Cary-50 Spectrophotomer). Spectral properties were compared to oxybenzone at similar concentration.

[2] = Solution stability of Boc-protected imine in protic solvent (ethanol); assay type: physicochemical; settings: 70° C., catalytic glacial acetic acid, LCMS and UV/Vis
Procedure: To understand the solution stability of the Boc-protected imines in protic solvent, N-Boc-Imine-6 was prepared in ethanol in the presence of catalytic glacial acetic acid. Briefly, to a solution of oxybenzone (0.10 g, 0.438 mmol, 1 eq) and N-Boc-1,6-hexanediamine (0.094 g, 0.43 mmol, 1 eq) in ethanol (0.3 mL) was added catalytic glacial acetic acid (1 μL). The reaction mixture was agitated at 900 rpm at 70° C. for 16 hr and monitored by LCMS. Full reaction of the starting material to a single product peak was observed by LCMS indicating completion. The reaction was then diluted in ethanol to final concentration of 0.04 mM and analyzed by UV/Vis spectroscopy. […] Additionally, the Boc-protecting group remained intact throughout the reaction and UV/Vis analysis.

Compound: COc1ccc(/C(=N/Cc2ccccc2)c2ccccc2)c(O)c1 [Imine-1]
UVA and UVB absorption properties compared to oxybenzone [1]: improved both UVA-1, UVA-2, and UVB absorption properties

Compound: COc1ccc(/C(=N/c2ccccc2)c2ccccc2)c(O)c1 [Imine-2]
UVA and UVB absorption properties compared to oxybenzone [1]: improved both UVA-1, UVA-2, and UVB absorption properties

Compound: COc1ccc(/C(=N/O)c2ccccc2)c(O)c1 [Imine-3]
UVA and UVB absorption properties compared to oxybenzone [1]: loss in the UVA blocking and reduction in UVB blocking

Compound: COc1ccc(/C(=N/C(CCC(N)=O)C(=O)O)c2ccccc2)c(O)c1 (stereo not drawn) [Imine-5]
absorption spectra, regions encompassed [1]: encompassed the UVA-1, UVA-2, and UVB regions as well as the visible region of the spectrum (greater than 400 nm)

Compound: COc1cc(O)c(/C(=N\CCCCCCN)c2ccccc2)cc1S(=O)(=O)O [Imine-8]
UVA and UVB absorption properties compared to sulisobenzone ([1]; ethanol, N-Boc-Imine-8 0.032 mM, Imine-8 8 mM, FIG. 6): retained absorbance in the UVB region and extended absorbance into the UVA region

Compound: CCCCCCOC(=O)c1ccccc1/C(=N/CCCCCCN)c1cccc(N(CC)CC)c1O [Imine-9]
shift of the absorbance spectra ([1]; data not shown): red shift of the absorbance spectra, which extends to the visible region

solution stability without reversion to the starting ketone and amine [2]: stable over 24 hours
Compound: COc1ccc(/C(=N/CCCCCCNC(=O)OC(C)(C)C)c2ccccc2)c(O)c1 [N-Boc-Imine-6]
absorption spectra, regions encompassed [1]: encompassed the UVA-1, UVA-2, and UVB regions as well as the visible region of the spectrum (greater than 400 nm)
absorption, regions encompassed ([1]; ethanol, 0.04 mM, FIG. 4): encompasses the UVA and UVB regions as well as the visible region of the spectrum (greater than 400 nm)

— patent US20220160601A1, “Sunscreen Compositions” (Curie Co. Inc., priority 2020, published 2022)
